Test results as given in patent US8609609B2, “Peptides and methods of use as therapeutics and screening agents” (North Carolina State University, priority 2008, dated 2013).
No end group written: not given here.

Tests used:
[1] = system: fully modified human tRNA^LYS3 anticodon stem and loop domain (modified ASL^LYS3); assay: Fluorescence titration of fluorescein-conjugated peptides with modified ASL^LYS3; type: binding; details: for binding to the modified ASL^LYS3 (fluorescence monitored): fluorescein-conjugated peptide titrated with modified ASL^LYS3; for specific recognition of the modifications of the ASLLys3: comparison of titration with modified and with unmodified ASL^LYS3
From the text: (§1) The sequences of the target ASLLys3 and that of control ASLs are shown. Peptides were selected against the ASLLys3 and tested against all three. The ASL^LYS3 contains the natural modified nucleosides, 5-methoxycarbonylmethyl-2-thiouridine-34 (mcm5s2U34), 2-methylthio-N6-threonylcarbamoyladenosine-37 (ms2t6A37), and pseudouridine-39 (Ψ39).
(§2) Peptides were selected by phage display methods to bind to the modified ASL^LYS3. Control peptides were selected for their lack of recognition. Each peptide is synthesized with a conjugated fluorescein as a reporter. Here control peptide #21 is titrated with the three ASLs and the fluorescence is monitored.
(§3) Peptides #6 and #17 were selected by phage display methods to bind to the modified ASL^LYS3. These peptides along with control peptide #21 were synthesized with a conjugated fluorescein as a reporter. Here the three peptides are titrated with the modified ASLLys3 and the fluorescence is monitored.

unmodified ASL^LYS3 = assay: Fluorescence titration of fluorescein-conjugated peptides with unmodified ASL^LYS3; type: binding; details: fluorescein-conjugated peptide titrated with unmodified ASL^LYS3
From the text: as §1, §2
as §3, with “unmodified ASL^LYS3” for “modified ASLLys3”

Feline (FEA) cells = assay: Shear-loading of feline (FEA) cells with fluorescein-conjugated peptide: fluorescence microscopy and toxicity staining; type: cell-based; details: after 1, 2 and 3 days, at the concentrations used for loading
From the text: Feline (FEA) cells are “shear-loaded” with the peptide #6 that binds the modified ASLLys3. Fluorescein-conjugated, peptide #6 is located with fluorescence microscopy First row: Sham loaded cells. Second row: Peptide loaded. Third row: Peptide loaded at 40× magnification.

[2] = system: EIAV infected feline (FEA) cells; assay: Toxicity by staining in EIAV infected feline (FEA) cells shear-loaded with peptide; type: cell-based
Experimental: (§4) EIAV is a lentivirus as is HIV, and as such utilizes the host cell tRNA^LYS3 for priming reverse transcription. EIAV infected feline (FEA) cells are “shear-loaded” with three concentrations (5, 10, 35) of peptide #6 that binds the modified ASL^LYS3 portion of HIV primer. Cells are sham loaded with phosphate buffered saline (PBS). The effect of the peptide on reverse transcriptase activity and on toxicity are determined after 1, 2 and 3 days.

[3] = system: equine infectious anemia virus (EIAV); assay: Reverse transcriptase activity in EIAV infected feline (FEA) cells shear-loaded with peptide; type: cell-based
Experimental: as §4

Row | Sequence | binding to the modified ASL^LYS3 (fluorescence monitored) [1] | binding to the unmodified ASL^LYS3 (fluorescence monitored) (unmodified ASL^LYS3) | specific recognition of the modifications of the ASLLys3 [1] | toxicity, determined by staining (Feline (FEA) cells) | toxicity (staining of the cells) ([2]; high concentration) | toxicity (staining of the cells) ([2]; low and middle concentrations) | reverse transcriptase activity ([3]; EIAV infected FEA cells loaded with fluorescein-conjugated peptide, three concentrations (5, 10, 35), versus PBS sham loaded) | bioactivity in cells against reverse transcription ([3]; EIAV infected FEA cells, at days 2 and 3)
1 | NGPECNAYMVRCRGYH (cysteine pairing not given here; also: fluorescein label, position not given here) [compound 17] | bind | do not exhibit binding |  |  |  |  |  | 
2 | PKAFQYGGRAVGGLW (hASL LYS3 binding peptide) [compound 7] |  |  | specifically recognizing the modifications |  |  |  |  | 
3 | PAVASTSSLIIDGPF (also: fluorescein label, position not given here) [peptide #6] | bind | do not exhibit binding | specifically recognizing the modifications | not toxic | only slightly toxic | not toxic | significantly reduced | significant bioactivity
